Reference: article PMC5911580, “YL143, a novel mutant selective irreversible EGFR inhibitor, overcomes EGFR^L858R, T790M‐mutant resistance in vitro and in vivo” (Cancer Medicine, 2018)

What was measured:
[1] = target: IGF1R (Homo sapiens, UniProt P08069); assay: FRET-based Z'-Lyte kinase assay, IGF1R; format: biochemical; conditions: AV ± SD; 1.5 h incubation
Protocol: (§1) The kinase activity assay was performed and optimized according to the instructions of Z’‐LYTE™ kinase assay kits from the manufacturer (PV4879, Life, America). In our experiments, 10 concentration gradients from 0.01 nmol/L to 1.0 μmol/L were used for all the compounds.

[2] = target: T1, EGFR^Del 19 (Homo sapiens, UniProt P00533, DEL746-750); assay: FRET-based Z'-Lyte kinase assay, EGFR Del 19; format: biochemical; conditions: AV ± SD; 1.5 h incubation
T1 construct: purchased Invitrogen
T1 sequence (P00533 with tags, fused parts or gaps DEL746-750): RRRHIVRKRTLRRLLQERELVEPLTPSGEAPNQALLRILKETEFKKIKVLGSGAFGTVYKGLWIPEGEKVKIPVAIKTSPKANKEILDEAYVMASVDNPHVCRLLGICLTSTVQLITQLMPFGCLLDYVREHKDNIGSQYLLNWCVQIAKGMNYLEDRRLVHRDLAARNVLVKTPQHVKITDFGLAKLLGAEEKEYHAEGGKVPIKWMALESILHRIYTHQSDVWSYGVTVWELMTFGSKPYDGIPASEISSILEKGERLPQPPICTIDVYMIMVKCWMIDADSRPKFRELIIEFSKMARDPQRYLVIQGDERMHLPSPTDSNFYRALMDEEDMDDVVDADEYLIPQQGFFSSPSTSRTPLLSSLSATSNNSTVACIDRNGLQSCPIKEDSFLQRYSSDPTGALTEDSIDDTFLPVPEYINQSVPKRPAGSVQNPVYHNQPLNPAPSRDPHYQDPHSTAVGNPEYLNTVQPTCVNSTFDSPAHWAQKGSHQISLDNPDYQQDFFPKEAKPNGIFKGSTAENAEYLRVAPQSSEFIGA
Protocol: as §1

[3] = system: BaF3-EGFR ^L858R; assay: CCK-8 assay, BaF3-EGFR L858R stable cells; format: cell-based; conditions: Ba/F3 EGFR-L858R; CCK-8; AV±SD; read-out: anti-proliferative activity BaF3-EGFR L858R
Protocol: Cells were seeded into 96‐well plates at a density of 1500~3000/well in complete medium overnight. Then, cells were treated with various concentrations (0.01~1000 nmol/L) of YL143 for additional 3 days. Viable cell numbers were determined by Cell Counting Kit 8 (CCK8, CK04, Dojindo Laboratories, Japan). Each assay consisted of three replicate wells and repeated at least three times. […] Each IC50 value was expressed as mean ± SD.
The anti-proliferative activities of the compounds were evaluated using CCK-8 assay. The data were means from at least four independent experiments.

[4] = target: PDGFRA (Homo sapiens, UniProt P16234); assay: Z'-Lyte kinase panel, PDGFRA; format: biochemical; conditions: 1.5 hrs incubation
PDGFRA, sequence (P16234 24-1089, species assumed): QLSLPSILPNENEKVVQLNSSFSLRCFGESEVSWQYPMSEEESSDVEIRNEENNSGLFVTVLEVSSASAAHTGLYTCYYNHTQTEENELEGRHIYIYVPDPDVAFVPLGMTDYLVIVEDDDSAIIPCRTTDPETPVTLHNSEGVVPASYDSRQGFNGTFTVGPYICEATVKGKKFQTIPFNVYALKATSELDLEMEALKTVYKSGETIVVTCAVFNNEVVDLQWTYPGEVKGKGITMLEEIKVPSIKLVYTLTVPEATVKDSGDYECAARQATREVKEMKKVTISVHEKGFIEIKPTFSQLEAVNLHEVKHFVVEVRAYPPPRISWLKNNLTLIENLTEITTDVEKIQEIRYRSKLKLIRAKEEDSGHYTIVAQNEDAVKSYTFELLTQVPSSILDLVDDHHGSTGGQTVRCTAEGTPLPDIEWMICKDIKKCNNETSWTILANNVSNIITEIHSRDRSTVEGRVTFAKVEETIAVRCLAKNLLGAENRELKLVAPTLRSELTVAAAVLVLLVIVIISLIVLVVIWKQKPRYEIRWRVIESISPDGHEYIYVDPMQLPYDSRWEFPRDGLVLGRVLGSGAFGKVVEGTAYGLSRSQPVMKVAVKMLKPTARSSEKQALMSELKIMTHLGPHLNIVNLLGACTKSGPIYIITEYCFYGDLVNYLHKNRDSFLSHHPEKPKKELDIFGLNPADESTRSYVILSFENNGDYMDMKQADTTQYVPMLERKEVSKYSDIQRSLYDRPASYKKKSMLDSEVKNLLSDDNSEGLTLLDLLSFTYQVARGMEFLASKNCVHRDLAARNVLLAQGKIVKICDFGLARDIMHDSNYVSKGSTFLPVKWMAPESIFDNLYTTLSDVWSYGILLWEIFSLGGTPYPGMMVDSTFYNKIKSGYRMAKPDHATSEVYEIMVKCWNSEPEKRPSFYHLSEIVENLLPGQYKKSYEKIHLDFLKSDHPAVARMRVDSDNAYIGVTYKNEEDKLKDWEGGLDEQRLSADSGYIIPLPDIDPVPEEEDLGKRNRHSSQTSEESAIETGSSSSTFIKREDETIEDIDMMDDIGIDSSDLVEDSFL
Protocol: (§2) Kinase activity assays were performed using the FRET-based Z′-Lyte assay according to the manufacturer’s instructions. The compounds were incubated with the kinase reaction mixture for 1.5 hrs before measurement. The data are means from two independent experiments and the variations are below 20%.

[5] = system: CDK2, CDK4, cyclin D2, cyclin E, caspase-3, caspase-9 in H1975 cells; assay: Western blot of cell cycle and apoptosis proteins in H1975 cells; format: cell-based, human; conditions: 3 to 300 nmol/L, 48 h
Protocol: Cells were treated with various concentrations of compound for designed time. Then, cells were lysed using 1 × SDS sample lysis buffer (CST recommended) with protease and phosphatase inhibitors. Cell lysates were loaded and electrophoresed onto 8–12% SDS‐PAGE gel, and then, separated proteins were transferred to a PVDF film. The film was blocked with 5% fat‐free milk in TBS solution containing 0.5% Tween‐20 for 4 h at room temperature and then incubated with corresponding primary antibody (1:1000–1:200) overnight at 4°C. After washing with TBST, HRP‐conjugated secondary antibody was incubated for 2 h. And the protein signals were visualized by ECL Western Blotting Detection Kit (Thermo Scientific, Waltham, MA) and detected with Amersham Imager 600 system (GE, America).
Figure 3 YL143 induces G0/G1 cell cycle arrest and apoptosis in H1975 cells. (A) YL143 induces G0/G1 cell cycle arrest in H1975 cells H1975 cells were treated with 3, 30 or 300 nmol/L for 48 h before DNA labeling by propidium iodide and cell cycle analysis by flow cytometry. (B) YL143 induces apoptosis in H1975 cells. H1975 cells were treated with 3, 30 or 300 nmol/L for 48 h before DNA labeling by Annexin V and 7‐AAD and cell apoptosis analysis by flow cytometry. (C) The effect of YL143 on the expression of CDK4, Cyclin D2, CDK2, Cyclin E, Caspase‐9 and Caspase‐3 was tested by western blotting. […]

[6] = target: AKT3 (Homo sapiens, UniProt Q9Y243); assay: Z'-Lyte kinase panel, AKT3; format: biochemical; conditions: 1.5 hrs incubation
AKT3, sequence (Q9Y243 whole entry, species assumed): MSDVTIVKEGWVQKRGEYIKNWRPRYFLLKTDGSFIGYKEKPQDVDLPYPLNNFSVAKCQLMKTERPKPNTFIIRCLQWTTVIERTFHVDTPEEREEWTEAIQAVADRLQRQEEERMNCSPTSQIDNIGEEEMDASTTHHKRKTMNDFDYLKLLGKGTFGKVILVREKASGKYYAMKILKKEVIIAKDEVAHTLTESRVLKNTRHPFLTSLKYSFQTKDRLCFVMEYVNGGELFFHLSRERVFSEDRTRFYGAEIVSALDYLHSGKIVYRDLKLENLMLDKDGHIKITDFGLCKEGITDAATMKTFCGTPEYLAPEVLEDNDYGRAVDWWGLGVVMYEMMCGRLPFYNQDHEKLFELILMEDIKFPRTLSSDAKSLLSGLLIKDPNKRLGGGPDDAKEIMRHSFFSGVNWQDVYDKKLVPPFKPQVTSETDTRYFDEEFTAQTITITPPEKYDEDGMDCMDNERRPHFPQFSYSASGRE
Protocol: as §2

IGF1R, sequence (P08069 31-1367, species assumed): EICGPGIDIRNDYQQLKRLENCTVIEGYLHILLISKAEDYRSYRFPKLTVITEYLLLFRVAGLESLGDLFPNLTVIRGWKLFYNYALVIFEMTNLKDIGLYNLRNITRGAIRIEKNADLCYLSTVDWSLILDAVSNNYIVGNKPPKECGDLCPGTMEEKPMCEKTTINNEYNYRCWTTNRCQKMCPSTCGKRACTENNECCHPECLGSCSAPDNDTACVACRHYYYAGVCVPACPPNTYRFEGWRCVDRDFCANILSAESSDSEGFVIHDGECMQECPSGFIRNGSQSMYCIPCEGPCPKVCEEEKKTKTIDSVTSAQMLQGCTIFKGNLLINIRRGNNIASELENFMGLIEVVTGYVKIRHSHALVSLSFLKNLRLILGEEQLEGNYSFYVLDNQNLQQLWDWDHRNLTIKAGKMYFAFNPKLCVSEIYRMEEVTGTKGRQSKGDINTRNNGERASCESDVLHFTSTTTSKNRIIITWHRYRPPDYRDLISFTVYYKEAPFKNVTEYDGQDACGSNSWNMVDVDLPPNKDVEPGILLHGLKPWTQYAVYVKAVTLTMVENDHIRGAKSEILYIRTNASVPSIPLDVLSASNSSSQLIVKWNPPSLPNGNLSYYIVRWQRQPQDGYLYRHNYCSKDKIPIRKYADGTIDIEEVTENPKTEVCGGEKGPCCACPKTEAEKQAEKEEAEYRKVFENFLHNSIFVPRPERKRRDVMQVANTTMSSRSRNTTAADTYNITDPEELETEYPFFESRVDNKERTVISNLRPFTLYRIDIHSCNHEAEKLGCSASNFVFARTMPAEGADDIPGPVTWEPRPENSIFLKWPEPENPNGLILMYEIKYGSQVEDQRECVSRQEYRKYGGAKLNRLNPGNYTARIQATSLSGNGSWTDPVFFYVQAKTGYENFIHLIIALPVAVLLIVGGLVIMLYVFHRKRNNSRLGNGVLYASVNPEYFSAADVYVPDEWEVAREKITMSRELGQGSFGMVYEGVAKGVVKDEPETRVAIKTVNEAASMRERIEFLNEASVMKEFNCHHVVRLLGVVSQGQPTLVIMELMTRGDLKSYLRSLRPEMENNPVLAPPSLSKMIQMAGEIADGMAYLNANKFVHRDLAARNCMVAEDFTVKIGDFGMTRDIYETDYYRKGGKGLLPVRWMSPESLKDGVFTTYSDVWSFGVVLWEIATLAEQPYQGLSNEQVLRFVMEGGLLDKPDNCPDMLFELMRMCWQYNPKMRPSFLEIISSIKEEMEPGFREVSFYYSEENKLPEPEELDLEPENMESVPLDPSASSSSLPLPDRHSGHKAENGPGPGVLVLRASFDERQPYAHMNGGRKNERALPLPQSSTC

With C=CC(=O)Nc1cc(C)cc(-n2c(=O)cc(C)c3cnc(Nc4ccc(N5CCN(C)CC5)cc4OC)nc32)c1 [YL143, N‐(3‐(2‐((2‐Methoxy‐4‐(4‐methylpiperazin‐1‐yl)phenyl)amino)‐5‐methyl‐7‐oxopyrido [2,3‐d]pyrimidin‐8(7H)‐yl)‐5‐methylphenyl)acrylamide] the IC50 [1] was over 1000 nM, the IC50 [2] was 81.5 ± 10.3 nM and the IC50 [3] was 71 ± 41 nM. For the same compound, the IC50 [4] was over 10000 nM, the “protein levels of CDK2, CDK4, cyclin D2, cyclin E” value [5] was “dose‐dependently decreased” and the IC50 [6] was over 10000 nM.
